In article PMC7462607 (eLife, 2020):

Target: T1, 3xFLAG-CDK12/CCNK and DDB1 (Homo sapiens, UniProt Q9NYV4)
T1 construct: A549 3xFLAG-CDK12 knock-in cells were detached from plates by scraping; endogenous in cells; host or cells: A549 3xFLAG-CDK12 knock-in cells (lysate)
Test: Co-immunoprecipitation of CCNK and DDB1 with 3xFLAG-CDK12 complex
Assay type: binding
Conditions: A549 3xFLAG-CDK12 knock-in lysates
Protocol: Anti-FLAG M2 antibody (Sigma-Aldrich, MO, USA F3165) was coupled to magnetic epoxy beads (Beijing Yunci Technology Co., Beijing, China) at the ratio of 10 μg of anti-FLAG antibody/mg of beads in the presence of 1 M ammonium acetate and 0.1 M sodium phosphate, pH 7.4 at 37°C overnight. A549 3xFLAG-CDK12 knock-in cells were detached from plates by scraping, washed in DPBS, and then frozen in liquid nitrogen. Frozen cells were pulverized using a mixer mill MM 400 (Retsch, Haan, Germany) with two rounds of 1 min ball milling at 30 Hz. Per experiment, 25 mg of grinded cell powder was solubilized with 250 µL of IP buffer (50 mM HEPES, pH 7.4, 300 mM NaCl, 0.1% Tween-20) supplemented with 1x cOmplete, Mini, EDTA-free protease inhibitor cocktail (Roche, Bazel, Switzerland). The resulting lysates were centrifuged at 15,000 g for 10 min at 4°C. Clarified lysates were supplemented with HQ461 or DMSO and incubated at 4°C for 30 min. Afterwards, 0.2 mg of anti-FLAG-conjugated magnetic beads were mixed with clarified lysates for 15 min on a rotating platform at 4°C, followed by three washes with IP buffer supplemented with HQ461 or DMSO. Bound proteins were eluted from magnetic beads with 1 mg/ml of 3 × FLAG peptide (Sigma-Aldrich, MO, USA F4799) with agitation at 4°C for 30 min. Eluted proteins were subjected to SDS-PAGE and western blotting with anti-FLAG-HRP, anti-CCNK, and anti-DDB1. […]

T1 sequence (Q9NYV4 whole entry): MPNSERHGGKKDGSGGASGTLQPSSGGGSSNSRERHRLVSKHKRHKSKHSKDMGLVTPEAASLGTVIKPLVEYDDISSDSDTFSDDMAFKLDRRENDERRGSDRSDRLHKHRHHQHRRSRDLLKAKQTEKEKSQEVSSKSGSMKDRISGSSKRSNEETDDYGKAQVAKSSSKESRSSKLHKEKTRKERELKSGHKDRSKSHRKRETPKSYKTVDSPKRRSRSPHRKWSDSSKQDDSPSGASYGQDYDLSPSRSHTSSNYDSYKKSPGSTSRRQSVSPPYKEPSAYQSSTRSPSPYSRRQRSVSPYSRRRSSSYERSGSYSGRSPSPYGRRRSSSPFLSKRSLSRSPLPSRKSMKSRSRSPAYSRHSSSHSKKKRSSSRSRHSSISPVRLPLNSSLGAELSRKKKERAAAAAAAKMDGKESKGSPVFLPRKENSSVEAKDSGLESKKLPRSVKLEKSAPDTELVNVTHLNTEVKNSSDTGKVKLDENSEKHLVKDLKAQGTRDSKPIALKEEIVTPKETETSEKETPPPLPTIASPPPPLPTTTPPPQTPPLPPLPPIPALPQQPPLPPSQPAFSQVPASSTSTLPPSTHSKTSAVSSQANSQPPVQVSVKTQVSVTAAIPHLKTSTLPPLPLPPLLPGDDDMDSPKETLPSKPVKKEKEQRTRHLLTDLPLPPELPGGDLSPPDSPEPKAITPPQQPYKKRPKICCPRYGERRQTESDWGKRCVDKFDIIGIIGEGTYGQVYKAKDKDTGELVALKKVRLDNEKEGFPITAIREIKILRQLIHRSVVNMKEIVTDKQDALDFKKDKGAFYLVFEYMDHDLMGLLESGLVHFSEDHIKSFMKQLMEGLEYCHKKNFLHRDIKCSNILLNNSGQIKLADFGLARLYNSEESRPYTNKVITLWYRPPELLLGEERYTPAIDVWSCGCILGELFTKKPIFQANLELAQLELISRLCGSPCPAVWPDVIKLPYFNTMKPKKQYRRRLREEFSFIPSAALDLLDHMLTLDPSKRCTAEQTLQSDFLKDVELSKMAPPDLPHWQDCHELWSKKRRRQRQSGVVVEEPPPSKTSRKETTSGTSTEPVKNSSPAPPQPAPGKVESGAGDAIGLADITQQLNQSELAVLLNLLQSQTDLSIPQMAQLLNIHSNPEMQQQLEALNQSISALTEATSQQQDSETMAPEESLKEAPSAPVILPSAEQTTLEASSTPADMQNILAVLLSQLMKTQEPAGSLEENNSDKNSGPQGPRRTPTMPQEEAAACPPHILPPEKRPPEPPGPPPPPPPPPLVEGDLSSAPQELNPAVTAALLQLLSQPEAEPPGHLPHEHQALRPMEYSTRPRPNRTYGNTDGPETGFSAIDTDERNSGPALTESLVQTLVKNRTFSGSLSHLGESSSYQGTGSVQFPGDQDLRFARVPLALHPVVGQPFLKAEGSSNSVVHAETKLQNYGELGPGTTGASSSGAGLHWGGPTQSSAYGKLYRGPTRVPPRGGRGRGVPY
T1 sequence (O75909 whole entry partner): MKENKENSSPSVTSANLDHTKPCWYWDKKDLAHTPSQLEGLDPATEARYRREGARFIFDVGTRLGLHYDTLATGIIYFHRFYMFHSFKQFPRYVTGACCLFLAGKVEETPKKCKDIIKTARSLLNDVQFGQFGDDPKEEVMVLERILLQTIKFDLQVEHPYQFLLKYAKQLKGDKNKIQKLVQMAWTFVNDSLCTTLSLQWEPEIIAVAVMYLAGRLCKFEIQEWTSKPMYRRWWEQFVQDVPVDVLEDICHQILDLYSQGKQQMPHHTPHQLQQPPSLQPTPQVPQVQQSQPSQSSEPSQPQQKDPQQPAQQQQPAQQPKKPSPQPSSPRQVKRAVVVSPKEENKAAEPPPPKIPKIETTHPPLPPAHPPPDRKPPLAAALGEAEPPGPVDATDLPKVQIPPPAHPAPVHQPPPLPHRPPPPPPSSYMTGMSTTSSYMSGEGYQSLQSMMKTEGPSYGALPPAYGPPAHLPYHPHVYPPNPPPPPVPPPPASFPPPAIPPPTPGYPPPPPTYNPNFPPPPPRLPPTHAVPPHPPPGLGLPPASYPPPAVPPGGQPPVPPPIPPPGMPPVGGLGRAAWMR
T1 sequence (Q16531 2-1140 partner limits assumed): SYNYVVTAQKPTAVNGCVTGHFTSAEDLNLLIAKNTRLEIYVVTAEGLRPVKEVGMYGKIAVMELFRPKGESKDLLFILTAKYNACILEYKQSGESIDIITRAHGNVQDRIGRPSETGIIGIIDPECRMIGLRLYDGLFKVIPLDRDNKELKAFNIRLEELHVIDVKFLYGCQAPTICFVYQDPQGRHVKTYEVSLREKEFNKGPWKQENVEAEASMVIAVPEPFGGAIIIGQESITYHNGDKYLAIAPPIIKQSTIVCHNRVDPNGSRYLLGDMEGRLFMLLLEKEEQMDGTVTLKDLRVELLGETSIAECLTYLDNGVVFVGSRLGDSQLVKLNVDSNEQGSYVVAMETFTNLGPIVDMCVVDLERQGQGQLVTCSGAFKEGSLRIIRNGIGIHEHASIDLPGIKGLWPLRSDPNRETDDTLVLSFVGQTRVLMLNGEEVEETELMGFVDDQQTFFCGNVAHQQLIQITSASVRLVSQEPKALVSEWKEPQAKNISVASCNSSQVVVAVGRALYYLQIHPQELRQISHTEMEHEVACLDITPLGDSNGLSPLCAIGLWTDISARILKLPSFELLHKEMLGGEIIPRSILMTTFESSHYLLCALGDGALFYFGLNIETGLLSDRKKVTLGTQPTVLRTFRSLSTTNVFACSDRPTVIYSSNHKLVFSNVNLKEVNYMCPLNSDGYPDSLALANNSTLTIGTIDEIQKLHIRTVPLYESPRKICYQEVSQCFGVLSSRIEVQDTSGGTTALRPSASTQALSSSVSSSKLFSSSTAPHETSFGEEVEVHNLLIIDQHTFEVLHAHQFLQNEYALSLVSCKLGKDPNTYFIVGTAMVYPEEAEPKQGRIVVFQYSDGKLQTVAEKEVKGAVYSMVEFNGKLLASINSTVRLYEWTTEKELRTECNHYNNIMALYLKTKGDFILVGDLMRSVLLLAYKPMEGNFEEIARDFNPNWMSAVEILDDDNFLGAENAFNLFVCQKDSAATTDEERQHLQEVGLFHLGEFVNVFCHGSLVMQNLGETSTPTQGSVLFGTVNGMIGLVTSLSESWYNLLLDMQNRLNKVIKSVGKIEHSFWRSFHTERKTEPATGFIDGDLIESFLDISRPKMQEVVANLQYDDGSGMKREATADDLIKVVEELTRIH

In the case of `Cc1cccc(Nc2nc(CC(=O)Nc3ncc(C)s3)cs2)n1` [HQ461, 2-(2-((6-methylpyridin-2-yl)amino)thiazol-4-yl)-N-(5-methylthiazol-2-yl)acetamide], the “recruitment of DDB1 to CDK12/CCNK (coimmunoprecipitation)” value is reported as “DDB1 was only detected with the CDK12/CCNK complex isolated from lysates treated with HQ461”.
